Numbers after ± are expanded uncertainties.

The nature of the data set: molar enthalpy of vaporization or sublimation. The following applies: 298.15 K; Liquid; Calvet microcalorimetry.
Consider `COc1ccc(Br)cc1` [1-bromo-4-methoxybenzene], for which the molar enthalpy worked out at 13.9 ± 0.574 kcal/mol.

On to `COc1ccccc1Br` [1-bromo-2-methoxybenzene], for which the molar enthalpy worked out at 14.8 ± 0.621 kcal/mol.

`COc1cccc(Br)c1` [1-bromo-3-methoxybenzene]: the molar enthalpy is 13.9 ± 0.574 kcal/mol.

Values taken from the NIST ThermoML archive (doi:10.1016/j.jct.2008.11.008).
